Measurements: the NIST ThermoML archive (doi:10.1021/je900470r)
± gives the expanded uncertainty stated by the source.

How the values were obtained:
[1] = Liquid; for mass density: 298.15 K, 101.33 kPa
[2] = refractive index (Na D-line) (dimensionless); settings: 298.15 K; 101.33 kPa; Liquid; Standard Abbe refractometry

Row | mass density [1] | refractive index [2] | vapor or sublimation pressure ([1]; 351.46 K) | vapor or sublimation pressure ([1]; 418.69 K) | Structure (SMILES) | vapor or sublimation pressure ([1]; 352.68 K)
1 | 786.47 ± 0.5 kg/m3 | 1.3594 ± 0.0005 | 101.3 ± 0.2 kPa | – | CCO [ethanol] | –
2 | 780.75 ± 0.24 kg/m3 | 1.3754 ± 0.0005 | – | – | CC(C)O [propan-2-ol] | –
3 | 870.88 ± 0.48 kg/m3 | 1.3992 ± 0.0005 | – | 101.3 ± 0.3 kPa | CCCCOC(=O)CC [butyl propanoate] | –

Row | Structure (SMILES) | mass density [1] | refractive index [2] | vapor or sublimation pressure ([1]; 351.46 K) | vapor or sublimation pressure ([1]; 418.69 K) | vapor or sublimation pressure ([1]; 352.68 K)
4 | CCC(C)=O [butanone] | 799.62 ± 0.23 kg/m3 | 1.3761 ± 0.0005 | – | – | 101.3 ± 0.2 kPa
